Calls of active or inactive are those of the source. The calls are words filed in the database; no cut-off is given here.
Assays:
Candida albicans [1] = assay: Antifungal activity against wild-type Candida albicans SC5314 assessed as reduction in filamentous growth; assay type: functional, organism-based
Candida albicans [2] = assay: Antifungal activity against Candida albicans DSY654 assessed as inhibition of biofilm formation incubated for 24 hrs by XTT assay; assay type: functional, organism-based
Candida albicans [3] = assay: Antifungal activity against Candida albicans DSY654 assessed as reduction in number of adherent fungal cells on human A549 cells after 90 mins by calcofluor White staining based fluorescent microscopy; assay type: functional, organism-based
Candida albicans [4] = assay: Antifungal activity against Candida albicans DSY654 assessed as inhibition of yeast to hyphal morphological transition measured at 6 hrs by fluorescent microscopy; assay type: functional, organism-based
Candida albicans [5] = assay: Antifungal activity against Candida albicans DSY654 assessed as reduction in filamentous growth; assay type: functional, organism-based
Candida albicans [6] = assay: Downregulation of RAS1 gene expression in Candida albicans DSY654 at 4 ug/ml after 1.5 to 6 hrs by RT-qPCR assay; assay type: functional, organism-based
Candida albicans [7] = assay: Upregulation of NRG1 gene expression in Candida albicans DSY654 at 4 ug/ml after 1.5 to 6 hrs by RT-qPCR assay relative to control; assay type: functional
Candida albicans [8] = assay: Downregulation of UME6 gene expression in Candida albicans DSY654 at 4 ug/ml after 1.5 to 6 hrs by RT-qPCR assay; assay type: functional, organism-based
Candida albicans [9] = assay: Antifungal activity against Candida albicans DSY654 assessed as inhibition of biofilm formation incubated for 24 hrs by fluorescent microscopy; assay type: functional, organism-based
Candida albicans [10] = assay: Antifungal activity against Candida albicans DSY654 assessed as inhibition of massive filamentation at 4 to 32 ug/ml; assay type: functional, organism-based
Candida albicans [11] = assay: Downregulation of HWP1 gene expression in Candida albicans DSY654 at 4 ug/ml after 1.5 to 6 hrs by RT-qPCR assay; assay type: functional, organism-based
Candida albicans [12] = assay: Downregulation of ALS3 gene expression in Candida albicans DSY654 at 4 ug/ml after 1.5 to 6 hrs by RT-qPCR assay; assay type: functional, organism-based
Candida albicans [13] = assay: Upregulation of PDE2 gene expression in Candida albicans DSY654 at 4 ug/ml after 1.5 to 6 hrs by RT-qPCR assay; assay type: functional, organism-based
Candida albicans [14] = assay: Downregulation of CDC35 gene expression in Candida albicans DSY654 at 4 ug/ml after 1.5 to 6 hrs by RT-qPCR assay; assay type: functional, organism-based
Candida albicans [15] = assay: Downregulation of ECE1 gene expression in Candida albicans DSY654 at 4 ug/ml after 1.5 to 6 hrs by RT-qPCR assay; assay type: functional, organism-based

## CC(=O)O[C@H]1OC=C(CO)[C@H]2[C@@H]1[C@@]1(CC[C@H]3[C@@H]2[C@@]3(CO)COC(=O)/C=C/c2ccccc2)CO1
Candida albicans [1]
  Activity: inactive

## C=C1[C@@H](O)[C@@H]2[C@H](C[C@@H](O)/C(COC(=O)CCc3ccccc3)=C/[C@@H](O)[C@H]1OC(C)=O)[C@]2(C)CO
Candida albicans [1]
  Activity: inactive

## CC(=O)O[C@@H]1/C=C(\CO)[C@H](OC(=O)CCc2ccccc2)C[C@H]2[C@@H](/C=C(\C)[C@@H]1O)[C@@]2(C)CO
Candida albicans [1]
  Activity: inactive

## CC(=O)O[C@H]1/C(C)=C/[C@@H]2[C@H](C[C@@H](OC(=O)CCc3ccccc3)/C(CO)=C/[C@H]1O)[C@]2(C)CO
Candida albicans [1]
  Activity: inactive

## CC1=C2C[C@]3(C)CC(=O)[C@@](O)(C(C)C)[C@H]3CC[C@H](C)[C@]2(O)CC1=O
Candida albicans [1]
  Activity: inactive

## CC(C)[C@]1(O)C(=O)C[C@@]2(C)CC3=C([C@H](C)CC[C@@H]21)[C@H](O)CC3=O
Candida albicans [1]
  Activity: inactive

## C=C1CC[C@H]2[C@@H](/C=C(\C)[C@H](OC(C)=O)[C@H](OC(C)=O)[C@@H]1OC(C)=O)C2(C)C
Candida albicans [2]
  Activity: Dose-dependent effect
Candida albicans [3]
  Activity: Dose-dependent effect
Candida albicans [1]
  Activity: inactive
Candida albicans [4]
  Activity: Dose-dependent effect
Candida albicans [5]
  Activity: Active
Candida albicans [6]
  Activity: Active
Candida albicans [7]
  fold change (FC): >10
Candida albicans [8]
  Activity: Active
Candida albicans [9]
  Activity: Dose-dependent effect
Candida albicans [10]
  Activity: Active
Candida albicans [11]
  Activity: Active
Candida albicans [12]
  Activity: Active
Candida albicans [13]
  Activity: Active
Candida albicans [14]
  Activity: Active
Candida albicans [15]
  Activity: Active

## CC(C)[C@@]1(O)C(=O)C[C@]2(C)C[C@]3(O)C(=CC(=O)[C@H]3C)[C@@H](C)CC[C@H]21
Candida albicans [1]
  Activity: inactive

## CC(C)[C@@]1(O)C(=O)C[C@]2(C)CC3=C(C(=O)C[C@@]3(C)O)[C@@H](C)CC[C@H]21
Candida albicans [1]
  Activity: inactive

## CC(=O)OC/C1=C\[C@@H](O)[C@@H](OC(C)=O)/C(C)=C/[C@@H]2[C@H](C[C@H]1OC(=O)CCc1ccccc1)[C@]2(C)CO
Candida albicans [1]
  Activity: inactive

## C=C1CC[C@H]2[C@@H](/C=C(\C)CC[C@H]1O)[C@@H](C(C)(C)O)CC[C@@H]2C
Candida albicans [1]
  Activity: inactive
Candida albicans [5]
  Activity: Active

## CC1=C2C[C@@]3(C)CC(=O)[C@](O)(C(C)C)[C@@H]3CC[C@H](C)[C@@]2(O)CC1=O
Candida albicans [1]
  Activity: inactive

## C=C1[C@@H](O)[C@@H]2[C@H](C[C@@H](OC(=O)CCc3ccccc3)/C(CO)=C/[C@@H](OC(C)=O)[C@H]1O)[C@]2(C)CO
Candida albicans [1]
  Activity: inactive

## C=C1CC[C@@H](O)[C@]2(C)CC[C@H]3[C@@H]([C@@H]12)[C@@H](C(C)(C)O)CC[C@@H]3C
Candida albicans [1]
  Activity: inactive

— ChEMBL document CHEMBL4619771, “Terpenoids from the Liverwort Plagiochila fruticosa and Their Antivirulence Activity against Candida albicans” (2020)
